Results as given in ChEMBL document CHEMBL1201862, “PubChem BioAssay data set” (2004).
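Grown in 96-well plates, cells were treated for 48 hours with each compound at five concentrations. Insufficient inhibition: endpoint recorded as highest concentration tested. GI50 = concentration required for 50% inhibition of growth.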 Calls of active or inactive are those of the source. Rule as the data show it: active = GI50 up to about 1.1 µM and inactive = higher.

Key:
Assay in all cases: NCI anticancer screen, dose series, 48 h
786-0 = tested on: 786-0
A549 = tested on: A549
COLO 205 = tested on: COLO 205
HCT-116 = tested on: HCT-116
HL-60 = tested on: HL-60
IGROV-1 = tested on: IGROV-1
LOX IMVI = tested on: LOX IMVI
MDA-MB-231 = tested on: MDA-MB-231
MDA-N = tested on: MDA-N
NCI-H23 = tested on: NCI-H23
NCI-H522 = tested on: NCI-H522
OVCAR-8 = tested on: OVCAR-8
PC-3 = tested on: PC-3
SF-295 = tested on: SF-295
SK-MEL-28 = tested on: SK-MEL-28
SK-MEL-2 = tested on: SK-MEL-2
SK-MEL-5 = tested on: SK-MEL-5
SW-620 = tested on: SW-620
T47D = tested on: T47D
TK-10 = tested on: TK-10

SMILES	GI50 (786-0)	GI50 (A549)	GI50 (COLO 205)	GI50 (HCT-116)	GI50 (HL-60)	GI50 (IGROV-1)	GI50 (LOX IMVI)	GI50 (MDA-MB-231)	GI50 (MDA-N)	GI50 (NCI-H23)	GI50 (NCI-H522)	GI50 (OVCAR-8)	GI50 (PC-3)	GI50 (SF-295)	GI50 (SK-MEL-28)	GI50 (SK-MEL-2)	GI50 (SK-MEL-5)	GI50 (SW-620)	GI50 (T47D)	GI50 (TK-10)
Cc1nccn1S(=O)(=O)c1ccc(Cl)cc1	> 100 µM (inactive)	> 100 µM (inactive)	19.8 µM (inactive)	30.5 µM (inactive)	22.9 µM (inactive)	37.4 µM (inactive)	41.5 µM (inactive)	31.9 µM (inactive)	22.2 µM (inactive)	39.6 µM (inactive)	27.9 µM (inactive)	59.2 µM (inactive)	99.8 µM (inactive)	67.6 µM (inactive)	94 µM (inactive)	72.9 µM (inactive)	37.4 µM (inactive)	65.2 µM (inactive)	38 µM (inactive)	72.8 µM (inactive)
CCN1CCC(O)(c2ccc([N+](=O)[O-])cc2)C(C(=O)c2ccc([N+](=O)[O-])cc2)C1 (stereo not given)	15.5 µM (inactive)	69 µM (inactive)	13.8 µM (inactive)	17.2 µM (inactive)	41.5 µM (inactive)	18.2 µM (inactive)	21.6 µM (inactive)	25.8 µM (inactive)	20.8 µM (inactive)	19.5 µM (inactive)	3.33 µM (inactive)	30.1 µM (inactive)	26.6 µM (inactive)	> 100 µM (inactive)	16.6 µM (inactive)	43.2 µM (inactive)	18.1 µM (inactive)	25.1 µM (inactive)	23.3 µM (inactive)	17.8 µM (inactive)
CN(C)CCCNc1ccc2nnn3c4ccc([N+](=O)[O-])cc4c(=O)c1c23	0.624 µM (active)	0.721 µM (active)	0.834 µM (active)	0.404 µM (active)	1.83 µM (inactive)	1.95 µM (inactive)	0.641 µM (active)	0.274 µM (active)	2.09 µM (inactive)	2.03 µM (inactive)	1.63 µM (inactive)	0.597 µM (active)	1.28 µM (inactive)	1.42 µM (inactive)	4.6 µM (inactive)	3.12 µM (inactive)	1.7 µM (inactive)	0.45 µM (active)	11.4 µM (inactive)	1.13 µM (inactive)
CCOC(=O)[C@@]12CCC(C1=O)[C@](C)(O)C[C@@H]2c1ccccc1	23.1 µM (inactive)	50.4 µM (inactive)	44.4 µM (inactive)	32.6 µM (inactive)	24.3 µM (inactive)	35.4 µM (inactive)	48.6 µM (inactive)	36.5 µM (inactive)	3.86 µM (inactive)	66.5 µM (inactive)	19 µM (inactive)	54.8 µM (inactive)	34 µM (inactive)	32.7 µM (inactive)	79.3 µM (inactive)	38.1 µM (inactive)	35.2 µM (inactive)	> 100 µM (inactive)	39 µM (inactive)	> 100 µM (inactive)
O=C(CN1CCCCC1)Nc1ccc2sc3ccccc3c(=O)c2n1	12.9 µM (inactive)	15 µM (inactive)	10.8 µM (inactive)	9.23 µM (inactive)	17.1 µM (inactive)	16 µM (inactive)	7.01 µM (inactive)	18.5 µM (inactive)	13.4 µM (inactive)	16.9 µM (inactive)	6.44 µM (inactive)	13.7 µM (inactive)	10.9 µM (inactive)	15 µM (inactive)	17.3 µM (inactive)	18.6 µM (inactive)	15.8 µM (inactive)	5.25 µM (inactive)	27.2 µM (inactive)	19.1 µM (inactive)
CSC(=S)N/N=C(\C)c1cccc(C)n1	0.361 µM (active)	0.762 µM (active)	0.0513 µM (active)	0.183 µM (active)	0.0764 µM (active)	1.61 µM (inactive)	1.13 µM (inactive)	1.85 µM (inactive)	0.925 µM (active)	0.975 µM (active)	0.0815 µM (active)	0.769 µM (active)	0.265 µM (active)	1.49 µM (inactive)	1.46 µM (inactive)	3.48 µM (inactive)	0.558 µM (active)	0.208 µM (active)	2.46 µM (inactive)	0.975 µM (active)
